# Experiments:
# [1] = target: T1, Human neuropeptide Y (NPY-Y1) (Homo sapiens, UniProt P25929); experiment: Radioligand binding, human neuropeptide Y NPY-Y1 membranes, FlashPlate, [125I]-PYY; conditions: compound at 10 μM; for A9 radioligand binding inhibition: human NPY-Y1 membranes
# T1 construct: purchased Perkin Elmer Biosignal
# T1 sequence (P25929 1-384): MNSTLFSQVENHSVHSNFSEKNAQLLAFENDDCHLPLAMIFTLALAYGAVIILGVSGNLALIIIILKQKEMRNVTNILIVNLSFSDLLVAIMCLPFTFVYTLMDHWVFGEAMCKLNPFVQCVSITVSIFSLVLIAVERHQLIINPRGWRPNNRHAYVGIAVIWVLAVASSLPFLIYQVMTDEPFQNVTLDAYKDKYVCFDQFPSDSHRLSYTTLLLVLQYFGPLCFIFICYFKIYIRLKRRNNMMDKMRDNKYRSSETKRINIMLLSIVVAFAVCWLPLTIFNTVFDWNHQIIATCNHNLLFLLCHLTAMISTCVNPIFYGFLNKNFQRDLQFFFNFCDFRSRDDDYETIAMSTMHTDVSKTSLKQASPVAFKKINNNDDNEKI
# In short: (§1)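 Cloned human receptor membranes were coated onto FlashPlate wells and incubated with radioligand and compound (added from a 0.5 mM DMSO daughter plate) for 1 hour at room temperature in the dark. Scintillation counting gave percent inhibition, with DMSO defining total and reference ligand defining non-specific binding.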
# Human melanocortin (MC5) = target: T2, Human melanocortin (MC5) (Homo sapiens, UniProt P33032); experiment: Radioligand binding, human melanocortin MC5 membranes, FlashPlate, [125I]-NDP-αMSH; conditions: compound at 10 μM; for A5 radioligand binding inhibition: human melanocortin MC5 membranes
# T2 construct: purchased Perkin Elmer Biosignal
# In short: as §1
# Human neurokinin (NK1) = target: T3, Human neurokinin (NK1) (Homo sapiens, UniProt P25103); experiment: Radioligand binding, human neurokinin NK1 membranes, filtration, [125I]-Substance P; conditions: compound at 10 μM; for A8 radioligand binding inhibition: human neurokinin NK1 membranes
# T3 construct: purchased Perkin Elmer Biosignal
# In short: (§2)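 Percent inhibition of radioligand binding measured on recombinant human membranes: NK1 with [125I]-Substance P, KOP with [3H]-Diprenorphine. Incubation 1 h at room temperature, then harvest onto 0.3% PEI-soaked filters, cold Tris-HCl pH 7.4 washes and scintillation counting; non-specific binding from reference ligand wells.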
# Human κ-Opioid (KOP) = target: T4, Human κ-Opioid (KOP) (Homo sapiens, UniProt P41145); experiment: Radioligand binding, human κ-opioid (KOP) membranes, filtration, [3H]-Diprenorphine; conditions: compound at 10 μM; for A2 radioligand binding inhibition: human κ-opioid (KOP) membranes
# T4 construct: purchased Perkin Elmer Biosignal
# In short: as §2
# [2] = target: T5, Human melanin-concentrating hormone (MCH1) (Homo sapiens, UniProt Q99705); experiment: Radioligand binding, human melanin-concentrating hormone MCH1 membranes, FlashPlate, [125I]-S36057; conditions: compound at 10 μM; for A6 radioligand binding inhibition: human MCH1 membranes
# T5 construct: purchased Perkin Elmer Biosignal
# In short: as §1
# Human μ-opioid (MOP) = target: T6, Human μ-opioid (MOP) (Homo sapiens, UniProt P35372); experiment: Radioligand binding, human μ-opioid (MOP) membranes, FlashPlate, [3H]-Naloxone; conditions: compound at 10 μM; for A7 radioligand binding inhibition: human μ-opioid (MOP) membranes
# T6 construct: purchased Perkin Elmer Biosignal
# In short: as §1
# Human Melanocortin (MC4) = target: T7, Human Melanocortin (MC4) (Homo sapiens, UniProt P32245); experiment: Radioligand binding, human melanocortin MC4 membranes, FlashPlate, [125I]-NDP-αMSH; conditions: compound at 10 μM; for A4 radioligand binding inhibition: human melanocortin MC4 membranes
# T7 construct: purchased Perkin Elmer Biosignal
# In short: as §1
# Human δ-opioid (DOP) = target: T8, Human δ-opioid (DOP) (Homo sapiens, UniProt P41143); experiment: Radioligand binding, human δ-opioid (DOP) membranes, FlashPlate, [3H]-Bremazocine; conditions: compound at 10 μM; for A1 radioligand binding inhibition: human δ-opioid (DOP) membranes
# T8 construct: purchased Perkin Elmer Biosignal
# In short: as §1
# Human Melanocortin (MC3) = target: T9, Human Melanocortin (MC3) (Homo sapiens, UniProt P41968); experiment: Radioligand binding, human melanocortin MC3 membranes, FlashPlate, [125I]-NDP-αMSH; conditions: compound at 10 μM; for A3 radioligand binding inhibition: human melanocortin MC3 membranes
# T9 construct: purchased Perkin Elmer Biosignal
# In short: as §1
# Human opioid (ORL1) = target: T10, Human opioid (ORL1) (Homo sapiens, UniProt P41146); experiment: Radioligand binding, human opioid ORL1 membranes, FlashPlate, [125I]-Nociceptin; conditions: compound at 10 μM; for A10 radioligand binding inhibition: human ORL1 membranes
# T10 construct: purchased Perkin Elmer Biosignal
# In short: as §1
# Mouse urotensin (mUR2) = target: T11, Mouse urotensin (mUR2) (Mus musculus, UniProt Q8VIH9); experiment: Radioligand binding, mouse urotensin mUR2 membranes, FlashPlate, [125I]-Urotensin II; conditions: compound at 10 μM; for A11 radioligand binding inhibition: mouse urotensin mUR2 membranes
# T11 construct: purchased Perkin Elmer Biosignal
# T11 sequence (Q8VIH9 1-385): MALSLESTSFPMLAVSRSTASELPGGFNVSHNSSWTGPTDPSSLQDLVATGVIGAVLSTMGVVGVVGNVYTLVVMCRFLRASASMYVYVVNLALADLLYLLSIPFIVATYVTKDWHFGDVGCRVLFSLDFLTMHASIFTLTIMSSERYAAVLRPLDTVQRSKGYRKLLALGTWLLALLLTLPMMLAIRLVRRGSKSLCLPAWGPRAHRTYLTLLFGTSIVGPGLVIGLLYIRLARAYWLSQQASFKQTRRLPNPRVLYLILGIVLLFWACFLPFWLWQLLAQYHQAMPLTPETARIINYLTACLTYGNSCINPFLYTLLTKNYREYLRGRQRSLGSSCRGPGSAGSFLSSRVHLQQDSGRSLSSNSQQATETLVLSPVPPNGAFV
# In short: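 Cloned mouse urotensin (mUR2) receptor membranes from Perkin Elmer Biosignal were immobilized in FlashPlate microplates using a proprietary coating. Each well got 19.5 μl buffer, then 0.5 μl of DMSO, reference ligand, or compound. Adding 5 μl of [125I]-Urotensin II, diluted to 5× final concentration in binding buffer, started binding. Plates were sealed with TopSeal-A and incubated 1 hour at room temperature in the dark. Wells were counted for 30 seconds each on a TopCount after a 60-second delay, and percentage inhibition was calculated.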
# T4 sequence (P41145 whole entry): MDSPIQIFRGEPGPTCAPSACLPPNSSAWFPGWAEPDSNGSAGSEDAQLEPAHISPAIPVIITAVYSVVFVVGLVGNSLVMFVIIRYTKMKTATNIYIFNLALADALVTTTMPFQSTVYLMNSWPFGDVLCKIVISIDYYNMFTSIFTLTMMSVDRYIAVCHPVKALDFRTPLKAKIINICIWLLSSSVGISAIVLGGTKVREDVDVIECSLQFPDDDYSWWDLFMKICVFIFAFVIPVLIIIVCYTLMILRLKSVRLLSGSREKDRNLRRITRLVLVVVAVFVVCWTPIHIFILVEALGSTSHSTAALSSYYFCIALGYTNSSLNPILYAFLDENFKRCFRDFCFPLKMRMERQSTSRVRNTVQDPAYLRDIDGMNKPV
# T3 sequence (P25103 whole entry): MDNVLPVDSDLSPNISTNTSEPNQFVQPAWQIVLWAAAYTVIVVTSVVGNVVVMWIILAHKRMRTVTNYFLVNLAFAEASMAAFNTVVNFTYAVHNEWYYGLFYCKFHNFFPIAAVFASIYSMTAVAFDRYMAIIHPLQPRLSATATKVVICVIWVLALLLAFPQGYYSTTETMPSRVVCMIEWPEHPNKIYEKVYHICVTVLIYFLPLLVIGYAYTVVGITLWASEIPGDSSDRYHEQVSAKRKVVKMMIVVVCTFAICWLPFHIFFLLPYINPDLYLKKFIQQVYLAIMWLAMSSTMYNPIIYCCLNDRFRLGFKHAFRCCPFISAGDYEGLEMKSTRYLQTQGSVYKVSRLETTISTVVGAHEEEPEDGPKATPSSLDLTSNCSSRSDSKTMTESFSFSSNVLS
# T6 sequence (P35372 whole entry): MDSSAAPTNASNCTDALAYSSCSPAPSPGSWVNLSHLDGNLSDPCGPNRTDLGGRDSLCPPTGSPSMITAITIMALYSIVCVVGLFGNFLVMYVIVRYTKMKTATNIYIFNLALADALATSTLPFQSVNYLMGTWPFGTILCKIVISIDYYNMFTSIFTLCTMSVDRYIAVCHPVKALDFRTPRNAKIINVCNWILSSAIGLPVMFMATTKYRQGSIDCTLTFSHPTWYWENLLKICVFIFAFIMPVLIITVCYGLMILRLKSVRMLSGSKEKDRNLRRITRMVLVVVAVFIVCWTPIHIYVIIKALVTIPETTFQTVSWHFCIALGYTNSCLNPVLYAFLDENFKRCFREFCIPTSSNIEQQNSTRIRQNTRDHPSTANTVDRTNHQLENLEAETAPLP
# T9 sequence (P41968 whole entry): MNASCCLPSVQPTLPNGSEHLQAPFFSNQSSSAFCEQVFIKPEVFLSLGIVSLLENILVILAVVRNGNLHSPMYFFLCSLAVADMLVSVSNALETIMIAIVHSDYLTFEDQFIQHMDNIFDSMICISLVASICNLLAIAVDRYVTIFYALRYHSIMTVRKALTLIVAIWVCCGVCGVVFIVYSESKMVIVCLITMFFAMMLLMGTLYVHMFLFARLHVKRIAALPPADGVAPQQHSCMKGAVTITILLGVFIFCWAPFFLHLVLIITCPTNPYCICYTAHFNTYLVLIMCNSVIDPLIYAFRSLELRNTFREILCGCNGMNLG
# T7 sequence (P32245 whole entry): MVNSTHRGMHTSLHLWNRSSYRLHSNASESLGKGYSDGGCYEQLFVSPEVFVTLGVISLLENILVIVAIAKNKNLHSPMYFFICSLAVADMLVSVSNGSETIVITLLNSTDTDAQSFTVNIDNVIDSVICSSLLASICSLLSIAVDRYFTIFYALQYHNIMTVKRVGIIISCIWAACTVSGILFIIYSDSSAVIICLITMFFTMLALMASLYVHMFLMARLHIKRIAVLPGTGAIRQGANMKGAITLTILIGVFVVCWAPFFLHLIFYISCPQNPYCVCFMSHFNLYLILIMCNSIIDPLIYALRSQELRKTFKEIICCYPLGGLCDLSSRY
# T10 sequence (P41146 whole entry): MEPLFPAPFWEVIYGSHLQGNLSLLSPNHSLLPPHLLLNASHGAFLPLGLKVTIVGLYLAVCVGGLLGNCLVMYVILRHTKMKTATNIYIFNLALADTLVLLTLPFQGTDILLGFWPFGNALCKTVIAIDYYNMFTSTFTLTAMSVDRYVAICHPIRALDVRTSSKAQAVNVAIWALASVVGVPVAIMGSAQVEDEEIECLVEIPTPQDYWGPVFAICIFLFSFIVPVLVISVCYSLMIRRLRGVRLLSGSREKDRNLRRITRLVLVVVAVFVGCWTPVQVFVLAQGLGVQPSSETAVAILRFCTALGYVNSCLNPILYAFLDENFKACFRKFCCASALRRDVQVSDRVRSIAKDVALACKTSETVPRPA
# T5 sequence (Q99705 whole entry): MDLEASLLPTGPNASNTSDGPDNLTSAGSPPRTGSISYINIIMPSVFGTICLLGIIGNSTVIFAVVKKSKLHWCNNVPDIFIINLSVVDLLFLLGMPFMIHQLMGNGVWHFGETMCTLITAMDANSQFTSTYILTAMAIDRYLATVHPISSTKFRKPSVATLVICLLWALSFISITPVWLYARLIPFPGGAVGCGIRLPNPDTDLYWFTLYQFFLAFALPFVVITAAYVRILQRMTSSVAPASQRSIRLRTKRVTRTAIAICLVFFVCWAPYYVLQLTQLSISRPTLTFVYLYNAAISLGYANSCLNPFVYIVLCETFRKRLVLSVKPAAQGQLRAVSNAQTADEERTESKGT
# T2 sequence (P33032 whole entry): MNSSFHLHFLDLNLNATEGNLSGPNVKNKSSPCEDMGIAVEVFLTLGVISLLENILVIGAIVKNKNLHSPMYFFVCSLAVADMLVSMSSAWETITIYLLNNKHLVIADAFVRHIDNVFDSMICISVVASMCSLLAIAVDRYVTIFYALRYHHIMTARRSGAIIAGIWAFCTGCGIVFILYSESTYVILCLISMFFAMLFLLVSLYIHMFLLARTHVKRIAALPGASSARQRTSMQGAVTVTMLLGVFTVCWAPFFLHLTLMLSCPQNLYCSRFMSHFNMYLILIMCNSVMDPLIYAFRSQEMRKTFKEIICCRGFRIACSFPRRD
# T8 sequence (P41143 whole entry): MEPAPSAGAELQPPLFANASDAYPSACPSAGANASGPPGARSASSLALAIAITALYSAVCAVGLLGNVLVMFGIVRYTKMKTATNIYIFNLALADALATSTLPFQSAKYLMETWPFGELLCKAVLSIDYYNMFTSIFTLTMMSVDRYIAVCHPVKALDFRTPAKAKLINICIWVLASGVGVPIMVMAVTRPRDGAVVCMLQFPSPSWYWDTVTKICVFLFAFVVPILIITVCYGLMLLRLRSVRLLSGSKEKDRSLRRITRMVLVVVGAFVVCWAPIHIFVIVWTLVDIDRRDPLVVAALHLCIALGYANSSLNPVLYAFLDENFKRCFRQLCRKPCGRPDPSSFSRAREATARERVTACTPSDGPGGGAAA
compound,measurement,setting,value
COCC1OC(OCc2ccccc2)C(NC(=O)CCCN)C(OCc2ccccc2)C1O (stereo not shown) [compound 174],"A9 radioligand binding, percentage inhibition",[1]; [125I]-PYY,− (“−” indicates less than 50% inhibition at 10 μM)
same,"A5 radioligand binding, percentage inhibition",Human melanocortin (MC5); [125I]-NDP-αMSH,− (“−” indicates less than 50% inhibition at 10 μM)
same,"A8 radioligand binding, percentage inhibition",Human neurokinin (NK1); [125I]-Substance P,+ (“+” indicates greater than 50% inhibition at 10 μM)
same,"A2 radioligand binding, percentage inhibition",Human κ-Opioid (KOP); [3H]-Diprenorphine,− (“−” indicates less than 50% inhibition at 10 μM)
same,"A6 radioligand binding, percentage inhibition",[2]; [125I]-S36057,− (“−” indicates less than 50% inhibition at 10 μM)
same,"A7 radioligand binding, percentage inhibition",Human μ-opioid (MOP); [3H]-Naloxone,− (“−” indicates less than 50% inhibition at 10 μM)
same,"A4 radioligand binding, percentage inhibition",Human Melanocortin (MC4); [125I]-NDP-αMSH,− (“−” indicates less than 50% inhibition at 10 μM)
same,"A1 radioligand binding, percentage inhibition",Human δ-opioid (DOP); [3H]-Bremazocine,− (“−” indicates less than 50% inhibition at 10 μM)
same,"A3 radioligand binding, percentage inhibition",Human Melanocortin (MC3); [125I]-NDP-αMSH,− (“−” indicates less than 50% inhibition at 10 μM)
same,"A10 radioligand binding, percentage inhibition",Human opioid (ORL1); [125I]-Nociceptin,− (“−” indicates less than 50% inhibition at 10 μM)
same,"A11 radioligand binding, percentage inhibition",Mouse urotensin (mUR2); [125I]-Urotensin II,− (“−” indicates less than 50% inhibition at 10 μM)
CO[C@H]1[C@H](O)[C@@H](COCc2ccc3ccccc3c2)OC(OCc2ccccc2)[C@@H]1NC(=O)CCCNC(=N)N (stereo partly shown) [compound 89],A9 radioligand binding inhibition,[1],− (“−” indicates less than 50% inhibition at 10 μM)
same,A5 radioligand binding inhibition,Human melanocortin (MC5),− (“−” indicates less than 50% inhibition at 10 μM)
same,A8 radioligand binding inhibition,Human neurokinin (NK1),+ (“+” indicates greater than 50% inhibition at 10 μM)
same,A2 radioligand binding inhibition,Human κ-Opioid (KOP),− (“−” indicates less than 50% inhibition at 10 μM)
same,A6 radioligand binding inhibition,[2],− (“−” indicates less than 50% inhibition at 10 μM)
same,A7 radioligand binding inhibition,Human μ-opioid (MOP),+ (“+” indicates greater than 50% inhibition at 10 μM)
same,A4 radioligand binding inhibition,Human Melanocortin (MC4),− (“−” indicates less than 50% inhibition at 10 μM)
same,A1 radioligand binding inhibition,Human δ-opioid (DOP),− (“−” indicates less than 50% inhibition at 10 μM)
same,A3 radioligand binding inhibition,Human Melanocortin (MC3),− (“−” indicates less than 50% inhibition at 10 μM)
same,A10 radioligand binding inhibition,Human opioid (ORL1),− (“−” indicates less than 50% inhibition at 10 μM)
same,A11 radioligand binding inhibition,Mouse urotensin (mUR2),− (“−” indicates less than 50% inhibition at 10 μM)
COCC1OC(OCCc2ccccc2)C(NC(=O)CNC(=N)N)C(OCc2ccc3ccccc3c2)C1O (stereo not shown) [compound 226],A9: inhibition of radioligand binding,"[1]; [125I]-PYY, FlashPlate",− (“−” indicates less than 50% inhibition at 10 μM)
same,A5: inhibition of radioligand binding,"Human melanocortin (MC5); [125I]-NDP-αMSH, FlashPlate",+ (“+” indicates greater than 50% inhibition at 10 μM)
same,A8: inhibition of radioligand binding,"Human neurokinin (NK1); [125I]-Substance P, filtration",+ (“+” indicates greater than 50% inhibition at 10 μM)
same,A2: inhibition of radioligand binding,"Human κ-Opioid (KOP); [3H]-Diprenorphine, filtration",− (“−” indicates less than 50% inhibition at 10 μM)
same,A6: inhibition of radioligand binding,"[2]; [125I]-S36057, FlashPlate",− (“−” indicates less than 50% inhibition at 10 μM)
same,A7: inhibition of radioligand binding,"Human μ-opioid (MOP); [3H]-Naloxone, FlashPlate",− (“−” indicates less than 50% inhibition at 10 μM)
same,A4: inhibition of radioligand binding,"Human Melanocortin (MC4); [125I]-NDP-αMSH, FlashPlate",+ (“+” indicates greater than 50% inhibition at 10 μM)
same,A1: inhibition of radioligand binding,"Human δ-opioid (DOP); [3H]-Bremazocine, FlashPlate",− (“−” indicates less than 50% inhibition at 10 μM)
same,A3: inhibition of radioligand binding,"Human Melanocortin (MC3); [125I]-NDP-αMSH, FlashPlate",+ (“+” indicates greater than 50% inhibition at 10 μM)
same,A10: inhibition of radioligand binding,"Human opioid (ORL1); [125I]-Nociceptin, FlashPlate",− (“−” indicates less than 50% inhibition at 10 μM)
same,A11: inhibition of radioligand binding,"Mouse urotensin (mUR2); [125I]-Urotensin II, FlashPlate",− (“−” indicates less than 50% inhibition at 10 μM)
N=C(N)NCCC(=O)N[C@H]1C(OCc2ccc(Cl)cc2)O[C@H](COCc2ccccc2)[C@@H](O)[C@@H]1OCc1ccc(Cl)cc1 (stereo partly shown) [compound 525],"A9: inhibition of radioligand binding, human neuropeptide Y (NPY-Y1)",[1]; [125I]-PYY,− (“−” indicates less than 50% inhibition at 10 μM)
same,"A5: inhibition of radioligand binding, human melanocortin (MC5)",Human melanocortin (MC5); [125I]-NDP-αMSH,+ (“+” indicates greater than 50% inhibition at 10 μM)
same,"A8: inhibition of radioligand binding, human neurokinin (NK1)",Human neurokinin (NK1); [125I]-Substance P,+ (“+” indicates greater than 50% inhibition at 10 μM)
same,"A2: inhibition of radioligand binding, human κ-opioid (KOP)","Human κ-Opioid (KOP); [3H]-Diprenorphine, 10 µM",+ (“+” indicates greater than 50% inhibition at 10 μM)
same,"A6: inhibition of radioligand binding, human melanin-concentrating hormone (MCH1)",[2]; [125I]-S36057,+ (“+” indicates greater than 50% inhibition at 10 μM)
same,"A7: inhibition of radioligand binding, human μ-opioid (MOP)",Human μ-opioid (MOP); [3H]-Naloxone,− (“−” indicates less than 50% inhibition at 10 μM)
same,"A4: inhibition of radioligand binding, human melanocortin (MC4)","Human Melanocortin (MC4); [125I]-NDP-αMSH, 10 µM",+ (“+” indicates greater than 50% inhibition at 10 μM)
same,"A1: inhibition of radioligand binding, human δ-opioid (DOP)",Human δ-opioid (DOP); [3H]-Bremazocine,− (“−” indicates less than 50% inhibition at 10 μM)
same,"A3: inhibition of radioligand binding, human melanocortin (MC3)","Human Melanocortin (MC3); [125I]-NDP-αMSH, 10 µM",+ (“+” indicates greater than 50% inhibition at 10 μM)
same,"A10: inhibition of radioligand binding, human opioid (ORL1)",Human opioid (ORL1); [125I]-Nociceptin,− (“−” indicates less than 50% inhibition at 10 μM)
same,"A11: inhibition of radioligand binding, mouse urotensin (mUR2)",Mouse urotensin (mUR2); [125I]-Urotensin II,− (“−” indicates less than 50% inhibition at 10 μM)
CO[C@H]1[C@H](O)[C@@H](COCc2ccc(-c3ccccc3)cc2)OC(OCc2ccc(-c3ccccc3)cc2)[C@@H]1NC(=O)CCCN (stereo partly shown) [compound 53],A9 radioligand binding inhibition,[1],− (“−” indicates less than 50% inhibition at 10 μM)
same,A5 radioligand binding inhibition,Human melanocortin (MC5),− (“−” indicates less than 50% inhibition at 10 μM)
same,A8 radioligand binding inhibition,Human neurokinin (NK1),− (“−” indicates less than 50% inhibition at 10 μM)
same,A2 radioligand binding inhibition,Human κ-Opioid (KOP),− (“−” indicates less than 50% inhibition at 10 μM)
same,A6 radioligand binding inhibition,[2],+ (“+” indicates greater than 50% inhibition at 10 μM)
same,A7 radioligand binding inhibition,Human μ-opioid (MOP),− (“−” indicates less than 50% inhibition at 10 μM)
same,A4 radioligand binding inhibition,Human Melanocortin (MC4),− (“−” indicates less than 50% inhibition at 10 μM)
same,A1 radioligand binding inhibition,Human δ-opioid (DOP),− (“−” indicates less than 50% inhibition at 10 μM)
same,A3 radioligand binding inhibition,Human Melanocortin (MC3),− (“−” indicates less than 50% inhibition at 10 μM)
same,A10 radioligand binding inhibition,Human opioid (ORL1),− (“−” indicates less than 50% inhibition at 10 μM)
same,A11 radioligand binding inhibition,Mouse urotensin (mUR2),− (“−” indicates less than 50% inhibition at 10 μM)

# — US20080009418A1, “Selective Inhibitors” (Alchemia LTD., priority 2004, published 2008)
